Literature values in patent US20190263765A1, “SYNERGISTIC ANTICOAGULANT COMPOSITION” (priority 2018, published 2019).

Conditions: background statement

Compound | clearance from the body (in words) | clearance from the body
O=c1oc2ccccc2c(O)c1C1CC(c2ccc(-c3ccc(Br)cc3)cc2)Cc2ccccc21 (centres unmarked) [brodifacoum] | requires months | –
CC(=O)CC(c1ccccc1)c1c(O)c2ccccc2oc1=O (centres unmarked) [warfarin] | – | 72 to 96 h
